Experiments:
RBL-2H3 cells = experiment: Fluorescence-based assay of store-operated calcium entry in RBL-2H3 cells; type: cell-based, rat; parameters: key to RBL-2H3 (IC50, μmol): A, IC50 < 0.6 μM; B, IC50 = 0.6-1.2 μM; C, IC50 > 1.2 μM; — no fit; settings: thapsigargin, inhibition of Upslope of fluorescence after calcium addition; for IC50: Rattus norvegicus, read-out: RBL-2H3 (IC50, μmol)
Protocol: (§1) Fluorescence-based assays are used for screening the compounds described herein, such as compounds of Formulas (I), (IA), (II), (IIA), (III), (IIIA), (IV), (IVA), (V), (VA), (VI), (VIA), (VII), (VIIA), (VIII), (VIIIA), (IX), (IXA), (X), (XI), (XIA), (XII), or (XIIA) which modulate intracellular calcium.
B. Fluorescence-Based Assay of Store-Operated Calcium Entry in RBL-2H3 Cells.
RBL-2H3 cells are obtained from ATCC and maintained in complete medium with 10% FBS at 37° C./6% CO2.
The day prior to performing the assay, RBL-2H3 cells are plated in 50 μL of complete medium in a 384 well plate. Cells are grown at 37° C./6% CO2 overnight and grow to 50-60% confluence by the next day. On the assay day, 1.5 µM Fluo-4-AM dye (Invitrogen) in complete medium is added and incubated for 1 hour at RT. Cells are washed twice in Ca^2+-free HBSS buffer and 35 μL Ca^2+-free HBSS buffer is added to each well. 10 μL of a test compound prepared in a Ca^2+-free HBSS solution at 4.5× of the desired concentration is added to a well and incubated for 5 minutes at RT. 10 μL of thapsigargin prepared in a Ca^2+-free HBSS solution at 5.5× of the desired concentration (5.5 uM) is added to each well and incubated for an additional 25 minutes. The initial baseline fluorescence signal is measured with a FLIPR^384 (Molecular Devices) plate reader. 5 μL of 12× calcium in HBSS (12 mM) is added and changes in cellular fluorescence are measured with the FLIPR^384 plate reader. In each well, the change in the fluorescent signal as a function of time due to calcium entry into the cell is determined by calculating the difference between the fluorescent signal measured 7 seconds after calcium addition and the initial baseline fluorescence signal at time zero (t=0). This parameter is designated Upslope. The IC50 value is calculated as the concentration at which 50% of the Upslope is inhibited.

Orai1/STIM1 = molecular target: T1, Orai1/STIM1 (Homo sapiens, UniProt Q96D31); experiment: Fluorescence-based assay of store-operated calcium entry in Orai1/STIM1 stable cells; type: cell-based; parameters: key to Orai1/STIM1 (IC50, μmol): A, IC50 < 0.6 μM; B, IC50 = 0.6-1.2 μM; C, IC50 > 1.2 μM; — no fit; settings: HEK-293 cells stably expressing human STIM1 and Orai1, inhibition of Peak-Basal fluorescence signal after calcium addition; for IC50: read-out: Orai1/STIM1 (IC50, μmol)
T1 construct: c-myc (C); expressed in transfected cells; host or cells: HEK-293 cells stably expressing recombinant human STIM1 and Orai1
Description: as §1
A. Fluorescence-Based Assay of Store-Operated Calcium Entry in Orai1/STIM1 Stable Cells.
Cells stably expressing recombinant human STIM1 and Orai1 are generated by transfecting a human Orai1 expression plasmid (pcDNA3.1-Orai1-cmyc) into HEK-293 cells stably overexpressing human STIM1 (Roos et al. 2005 JCB 169(3): 435-445). Colonies of cells stably expressing both STIM1 and Orai1 proteins are selected and then subcloned by limiting dilution. Cells were cultured at 37° C./6% CO2 in complete medium with 10% FBS and appropriate selection markers.
The day prior to performing the assay Orai1/STIM1 stable cells are plated in 50 μL of complete medium at 90-95% confluence in a 384 well plate. Cells are grown at 37° C./6% CO2 overnight. On the day of the assay, 1.5 μM fluo-4-AM (Invitrogen) in complete medium is added to the cells, which are then incubated for 1 hour at RT. Cells are washed once in Ca^2+-free HBSS (Hank's buffered saline solution) and 35 μl of Ca^2+-free HBSS is added to each well. Test compounds are added to wells in a 10 μL Ca^2+-free HBSS solution, prepared at 4.5× the desired final concentration, and incubated for 30 minutes at RT. The initial baseline fluorescence signal is then measured with a FLIPR^384 (Molecular Devices) plate reader. Calcium entry is initiated by adding 5 μl of 10×CaCl2 (10 mM) in HBSS, and changes in cellular fluorescence are measured with the FLIPR^384 plate reader. In each well, the magnitude of the fluorescence signal as a result of calcium entry into the cell is determined by calculating the difference between the peak fluorescence signal measured after calcium addition and the initial baseline fluorescence signal (designated Peak-Basal). IC50 values are typically calculated as the concentration that inhibited 50% of the Peak-Basal signal.

T1 sequence (Q96D31 whole entry): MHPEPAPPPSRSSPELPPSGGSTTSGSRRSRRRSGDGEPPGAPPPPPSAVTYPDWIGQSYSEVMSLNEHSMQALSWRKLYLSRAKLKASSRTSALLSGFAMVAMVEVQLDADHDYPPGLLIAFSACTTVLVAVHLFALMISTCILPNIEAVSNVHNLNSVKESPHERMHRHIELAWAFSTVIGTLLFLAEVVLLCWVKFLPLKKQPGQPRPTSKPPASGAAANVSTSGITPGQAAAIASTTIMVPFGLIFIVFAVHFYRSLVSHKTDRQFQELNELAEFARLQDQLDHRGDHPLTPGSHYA

Row | SMILES | RBL-2H3 (IC50, μmol) (RBL-2H3 cells) | Orai1/STIM1 (IC50, μmol) (Orai1/STIM1) | IC50 (RBL-2H3 cells) | IC50 (Orai1/STIM1)
1 | Cn1nc(C(F)(F)F)cc1-c1cnc(OCc2c(F)cccc2Cl)nc1 [Compound 69] | — | — |  | 
2 | Cc1cc2c(cc1-c1cnc(OCc3c(F)cccc3Cl)nc1)OC(F)(F)O2 [Compound 70] |  |  | < 600 nM | > 1200 nM
3 | Cn1nc(C(F)(F)F)cc1-c1ccc(NC(=O)c2ccccc2F)nc1 [Compound 72, (2-fluorophenyl)-N-{5-[1-methyl-3-(trifluoromethyl)pyrazol-5-yl](2-pyridyl)}carboxamide] |  |  | < 600 nM | < 600 nM
4 | Cn1nc(C(F)(F)F)cc1-c1ccc(NC(=O)c2c(F)cccc2F)nc1 [Compound 74, (2,6-difluorophenyl)-N-{5-[1-methyl-3-(trifluoromethyl)pyrazol-5-yl](2-pyridyl)}carboxamide] |  |  | < 600 nM | 600 to 1200 nM
5 | Cn1nc(C(F)(F)F)cc1-c1cnc(NCc2c(F)cccc2F)cc1F [Compound 76, N-(2,6-difluorobenzyl)-4-fluoro-5-(1-methyl-3-(trifluoromethyl)-1H-pyrazol-5-yl)pyridin-2-amine] |  |  | 600 to 1200 nM | > 1200 nM
6 | Cn1nc(C(F)(F)F)cc1-c1ccc(NCc2c(F)ccc(F)c2F)nc1 [Compound 78, 5-(1-methyl-3-(trifluoromethyl)-1H-pyrazol-5-yl)-N-(2,3,6-trifluorobenzyl)pyridin-2-amine] |  |  | < 600 nM | < 600 nM
7 | Cn1nc(C(F)(F)F)cc1-c1ccc(NCc2ccc(F)cc2F)nc1 [Compound 80, 5-(1-methyl-3-(trifluoromethyl)-1H-pyrazol-5-yl)-N-(2,4-difluorobenzyl)pyridin-2-amine] |  |  | < 600 nM | < 600 nM
8 | Cn1nc(C(F)(F)F)cc1-c1ccc(NCc2c(F)cc(F)cc2F)nc1 [Compound 82, 5-(1-methyl-3-(trifluoromethyl)-1H-pyrazol-5-yl)-N-(2,4,6-trifluorobenzyl)pyridin-2-amine] |  |  | < 600 nM | < 600 nM
9 | Cn1nc(C(F)(F)F)cc1-c1ccc(NCc2c(F)cncc2F)nc1 [Compound 84, N-((3,5-difluoropyridin-4-yl)methyl)-5-(1-methyl-3-(trifluoromethyl)-1H-pyrazol-5-yl)pyridin-2-amine] |  |  | < 600 nM | < 600 nM
10 | Cc1cccc(F)c1CNc1ccc(-c2cc(C(F)(F)F)nn2C)cn1 [Compound 86, N-(2-fluoro-6-methylbenzyl)-5-(1-methyl-3-(trifluoromethyl)-1H-pyrazol-5-yl)pyridin-2-amine] |  |  | < 600 nM | < 600 nM
11 | Cn1nc(C(F)(F)F)cc1-c1cnc(NCc2ccccc2F)nc1 [Compound 96, N-(2-fluorobenzyl)-5-(1-methyl-3-(trifluoromethyl)-1H-pyrazol-5-yl)pyrimidin-2-amine] |  |  | < 600 nM | < 600 nM
12 | Fc1cccc(F)c1CNc1ccc(-n2nc(C(F)(F)F)cc2C(F)(F)F)cn1 [Compound 100, 5-(3,5-bis(trifluoromethyl)-1H-pyrazol-1-yl)-N-(2,6-difluorobenzyl)pyridin-2-amine] |  |  | < 600 nM | < 600 nM
13 | Fc1cc(F)c(CNc2ccc(-n3nc(C(F)(F)F)cc3C(F)(F)F)cn2)c(F)c1 [Compound 102, 5-(3,5-bis(trifluoromethyl)-1H-pyrazol-1-yl)-N-(2,4,6-trifluorobenzyl)pyridin-2-amine] |  |  | < 600 nM | < 600 nM
14 | Cc1nc(C(F)(F)F)cn1-c1ccc(NCc2c(F)cccc2F)nc1 [Compound 106, N-(2,6-difluorobenzyl)-5-(2-methyl-4-(trifluoromethyl)-1H-imidazol-1-yl)pyridin-2-amine] |  |  | < 600 nM | < 600 nM
15 | Cc1nc(C(F)(F)F)cn1-c1ccc(NCc2c(F)cc(F)cc2F)nc1 [Compound 108, 5-(2-methyl-4-(trifluoromethyl)-1H-imidazol-1-yl)-N-(2,4,6-trifluorobenzyl)pyridin-2-amine] |  |  | < 600 nM | 600 to 1200 nM
16 | Cc1nc(C(F)(F)F)cn1-c1ccc(NCc2c(F)cncc2F)nc1 [Compound 110, N-((3,5-difluoropyridin-4-yl)methyl)-5-(2-methyl-4-(trifluoromethyl)-1H-imidazol-1-yl)pyridin-2-amine] |  | — | > 1200 nM | 
17 | Cc1c(F)cccc1CNc1ccc(-n2cc(C(F)(F)F)nc2C)cn1 [Compound 112, N-(3-fluoro-2-methylbenzyl)-5-(2-methyl-4-(trifluoromethyl)-1H-imidazol-1-yl)pyridin-2-amine] |  | — | 600 to 1200 nM | 
18 | Cc1cc(C(F)(F)F)nn1-c1ccc(NCc2c(F)cccc2F)nc1 [Compound 116, N-(2,6-difluorobenzyl)-5-(5-methyl-3-(trifluoromethyl)-1H-pyrazol-1-yl)pyridin-2-amine] |  |  | < 600 nM | < 600 nM
19 | Cc1cc(C(F)(F)F)nn1-c1ccc(NCc2c(F)cc(F)cc2F)nc1 [Compound 118, 5-(5-methyl-3-(trifluoromethyl)-1H-pyrazol-1-yl)-N-(2,4,6-trifluorobenzyl)pyridin-2-amine] |  |  | < 600 nM | < 600 nM
20 | COc1cc(F)c(CNc2ccc(-n3nc(C(F)(F)F)cc3C)cn2)c(F)c1 [Compound 120, N-(2,6-difluoro-4-methoxybenzyl)-5-(5-methyl-3-(trifluoromethyl)-1H-pyrazol-1-yl)pyridin-2-amine] |  |  | < 600 nM | 600 to 1200 nM
21 | Cc1c(F)cccc1CNc1ccc(-n2nc(C(F)(F)F)cc2C)cn1 [Compound 122, N-(3-fluoro-2-methylbenzyl)-5-(5-methyl-3-(trifluoromethyl)-1H-pyrazol-1-yl)pyridin-2-amine] |  | — | < 600 nM | 
22 | Cc1cc(C(F)(F)F)nn1-c1ccc(NCc2c(F)cncc2F)nc1 [Compound 124, N-((3,5-difluoropyridin-4-yl)methyl)-5-(5-methyl-3-(trifluoromethyl)-1H-pyrazol-1-yl)pyridin-2-amine] |  |  | < 600 nM | 600 to 1200 nM
23 | Fc1cccc(F)c1CNc1ncc(Oc2ccccc2C(F)(F)F)cn1 [Compound 126, N-(2,6-difluorobenzyl)-5-(2-(trifluoromethyl)phenoxy)pyrimidin-2-amine] |  |  | < 600 nM | < 600 nM
24 | COc1cc(F)c(CNc2ncc(-c3cc4c(cc3C)OC(F)(F)O4)cn2)c(F)c1 [Compound 127, N-(2,6-difluoro-4-methoxybenzyl)-5-(2,2-difluoro-6-methylbenzo[d][1,3]dioxol-5-yl)pyrimidin-2-amine] |  |  | < 600 nM | < 600 nM
25 | COc1cc(C)c(-c2cnc(NCc3c(F)cccc3F)nc2)cn1 [Compound 128, N-(2,6-difluorobenzyl)-5-(6-methoxy-4-methylpyridin-3-yl)pyrimidin-2-amine] |  |  | < 600 nM | < 600 nM
26 | Cc1cc(Cl)ncc1-c1cnc(NCc2c(F)cc(Cl)cc2F)nc1 [Compound 129, N-(4-chloro-2,6-difluorobenzyl)-5-(6-chloro-4-methylpyridin-3-yl)pyrimidin-2-amine] |  |  | < 600 nM | < 600 nM

Source: patent US10106529B2, “Compounds that modulate intracellular calcium” (CalciMedica, Inc., priority 2011, dated 2018)
